Common to all, as to type: cell-based
Test [1] has as its system K562 cells. Kind of test: K562 cell proliferation inhibition, CCK-8. The conditions noted are these: Homo sapiens, 96 h, K562, 4 days, Table 12, positive control dBET6. The protocol:
The complete medium required for K562 cells is IMDM (ATCC, Product number: 30-2005) basal medium containing 10% fetal bovine serum. K562 cells were seeded in a 96-well plate at a density of 7,500 cells/well, and different concentrations of the compound of the present invention and positive control samples Alisertib (source: Bide Pharmaceuticals) and dBET6 (source: Bide Pharmaceuticals) were prepared to treat the cells. The cells were incubated at a 37° C., 5% CO2 cell culture incubator for 4 days.
Cell viability was detected using the CCK-8 kit (Beyotime, Product number: C0040) according to the manufacturer's instructions. According to the inhibition rate, GraphPad Prism software was used to calculate the IC50 value of each compound for 4 days, and the results are shown in Table 11-12.

Test [2] has as its system VCaP cells. Kind of test: VCaP cell proliferation inhibition, CCK-8. To be noted: Homo sapiens, 168 h, 7 days. An excerpt:
The complete medium required for VCaP cells is DMEM high glucose (Gibco, Product number: 11995-065) basal medium containing 10% fetal bovine serum. […] Cell viability was detected using the CCK-8 kit (Beyotime, Product number: C0040) according to the manufacturer's instructions.

Test [3] concerns LNCaP FGC cells. Kind of test: LNCaP FGC cell proliferation inhibition, CCK-8. To be noted: Homo sapiens, 96 h, 4 days. An excerpt: The complete medium required for LNCaP FGC cells is RPMI 1640 (ATCC, Product number: 30-2001) basal medium containing 10% fetal calf serum. […] Cell viability was detected using the CCK-8 kit (Beyotime, Product number: C0040) according to the manufacturer's instructions.

One may read the IC50 as the midpoint of a concentration-inhibition curve. Low values mean higher potency, high ones lower potency.

For `Cc1nc(Nc2ncc(C(=O)Nc3c(C)cccc3Cl)s2)cc(N2CCN(CCOCCC(=O)N3CC4(CCc5cc6c(cc5O4)C(=O)N(C4CCC(=O)NC4=O)C6=O)C3)CC2)n1` (centres unmarked) [PROTAC 11, N-(2-chloro-6-methylphenyl)-2-((6-(4-(2-(3-(7′-(2,6-dioxopiperidin-3-yl)-6′,8′-dioxo-4′,6′,7′,8′-tetrahydro-3′H-spiro[azetidine-3,2′-pyrano[2,3-f]isoindol]-1-yl)-3-oxopropoxy)ethyl)piperazin-1-yl)-2-methylpyrimidin-4-yl)amino)thiazole-5-carboxamide], the IC50 in test [1] came out at 0.066 µM.

As for `Cc1nc(Nc2ncc(C(=O)Nc3c(C)cccc3Cl)s2)cc(N2CCN(CCOCCC(=O)N3CCC4(CCc5cc6c(cc5O4)C(=O)N(C4CCC(=O)NC4=O)C6)CC3)CC2)n1` (centres unmarked) [PROTAC 13, N-(2-chloro-6-methylphenyl)-2-((6-(4-(2-(3-(7′-(2,6-dioxopiperidin-3-yl)-8′-oxo-4′,6′,7′,8′-tetrahydro-3′H-spiro[piperidine-4,2′-pyrano[2,3-f]isoindole]-1-yl)-3-oxopropoxy)ethyl)piperazin-1-yl)-2-methylpyrimidin-4-yl)amino)thiazole-5-carboxamide], the half-inhibitory concentration (IC50) in test [1] was found to be 0.02 µM.

Regarding `N#Cc1ccc(O[C@H]2CC[C@H](NC(=O)c3ccc(N4CCC(CN5CCC6(CC5)COc5cc7c(cc5O6)CN(C5CCC(=O)NC5=O)C7=O)CC4)nn3)CC2)cc1Cl` (some centres unmarked) [PROTAC 65], the concentration for half-maximal inhibition (IC50) came to 0.0011 µM in test [2] and 2.37 µM in test [3].

Take `N#Cc1ccc(O[C@H]2CC[C@H](NC(=O)c3ccc(N4CCC(CN5CCC6(CC5)Cc5cc7c(cc5O6)C(=O)N(C5CCC(=O)NC5=O)C7=O)CC4)nn3)CC2)cc1Cl` (some centres unmarked) [PROTAC 66, N-((1r,4r)-4-(3-chloro-4-cyanophenoxy)cyclohexyl)-6-(4-((6-(2,6-dioxopiperidine-3-yl)-5,7-dioxo-3,5,6,7-tetrahydrospiro[furo[2,3-f]isoindole-2,4′-piperidinyl]-1′-yl)methyl)piperidin-1-yl) pyridazine-3-carboxamide]: the half-maximal inhibitory concentration (IC50) in test [2] stood at 0.05 µM; in test [3], 3 µM.

For the compound `N#Cc1ccc(O[C@H]2CC[C@H](NC(=O)c3ccc(N4CC(N5CCC6(CC5)Cc5cc7c(cc5O6)C(=O)N(C5CCC(=O)NC5=O)C7=O)C4)nn3)CC2)cc1Cl` (some centres unmarked) [PROTAC 67, N-((1r,4r)-4-(3-chloro-4-cyanophenoxy)cyclohexyl)-6-(3-(6-(2,6-dioxypiperidin-3-yl)-5,7-dioxo-3,5,6,7-tetrahydrospiro[furo[2,3-f]isoindole-2,4′-piperidin]-1′-yl)azetidin-1-yl)pyridazine-3-carboxamide], the half-maximal inhibitory concentration (IC50) in test [2] came to 6.5 µM; in test [3], 6.1 µM.

Take `CC1(C)C(=O)N(c2ccc(C#N)c(C(F)(F)F)c2)C(=S)N1c1ccc(C(=O)N2CCC(F)(CN3CC4(CCc5cc6c(cc5O4)C(=O)N(C4CCC(=O)NC4=O)C6)C3)CC2)c(F)c1` (centres unmarked) [PROTAC 68]: the figures for the IC50 in test [2] and in test [3] were 0.03 µM and 3.86 µM, respectively.

`CC1(C)C(=O)N(c2ccc(C#N)c(C(F)(F)F)c2)C(=S)N1c1ccc(C(=O)N2CCC(CN3CCC4(CC3)COc3cc5c(cc3C4)C(=O)N(C3CCC(=O)NC3=O)C5=O)CC2)c(F)c1` (centres unmarked) [PROTAC 69]: the IC50 in test [2] is 4.26 µM; in test [3], 3.39 µM.

As to `CC1(C)C(=O)N(c2ccc(C#N)c(C(F)(F)F)c2)C(=S)N1c1ccc(C(=O)N2CC[C@@H](CN3CCC4(CC3)COc3cc5c(cc3C4)C(=O)N(C3CCC(=O)NC3=O)C5=O)C2)c(F)c1` (stereo partly drawn) [PROTAC 70, 4-(3-(4-((3S)-3-((7′-(2,6-dioxopiperidin-3-yl)-6′,8′-dioxo-4′,6′,7′,8′-tetrahydro-2′H-spiro[piperidine-4,3′-pyrano[2,3-f]isoindole]-1-yl)methyl)pyrrolidine-1-carbonyl)-3-fluorophenyl)-4,4-dimethyl-5-oxo-2-thioimidazolidin-1-yl)-2-(trifluoromethyl)benzonitrile], the concentration for half-maximal inhibition (IC50) in test [2] stood at 9.73 µM; in test [3] it was 7.06 µM.

As for `CC1(C)C(=O)N(c2ccc(C#N)c(C(F)(F)F)c2)C(=S)N1c1ccc(C(=O)N2CCC(CN3CCC4(CCc5cc6c(cc5O4)CN(C4CCC(=O)NC4=O)C6=O)CC3)CC2)c(F)c1` (centres unmarked) [PROTAC 72], the values for the IC50 in test [2] and in test [3] were 7.4 µM and 5.34 µM, respectively.

On to `CC1(C)C(=O)N(c2ccc(C#N)c(C(F)(F)F)c2)C(=S)N1c1ccc(C(=O)N2CC3(CCC(N4CCC5(CC4)COc4cc6c(cc4C5)C(=O)N(C4CCC(=O)NC4=O)C6=O)CC3)C2)c(F)c1` (centres unmarked) [PROTAC 73, 4-(3-(4-(7-(7′-(2,6-dioxopiperidin-3-yl)-6′,8′-dioxo-4′,6′,7′,8′-tetrahydro-2′H-spiro[piperidin-4,3′-pyrano[2,3-f]isoindol]-1-yl)-2-azaspiro[3.5]nonane-2-carbonyl)-3-fluorophenyl)-4,4-dimethyl-5-oxo-2-thioimidazolidin-1-yl)-2-(trifluoromethyl)benzonitrile], for which the values for the IC50 in test [2] and in test [3] were 2.49 µM and 4.53 µM, respectively.

For `CC1(C)C(=O)N(c2ccc(C#N)c(C(F)(F)F)c2)C(=S)N1c1ccc(C(=O)N2CCC3(CCC(N4CCC5(CC4)COc4cc6c(cc4C5)C(=O)N(C4CCC(=O)NC4=O)C6=O)CC3)C2)c(F)c1` (centres unmarked) [PROTAC 74, 4-(3-(4-(8-(7′-(2,6-dioxopiperidin-3-yl)-6′ 8′-dioxo-4′,6′,7′,8′-tetrahydro-2′H-spiro[piperidin-4,3′-pyrano[2,3-f]isoindol]-1-yl)-2-azaspiro[4.5]decane-2-carbonyl)-3-fluorophenyl)-4,4-dimethyl-5-oxo-2-thioimidazolidin-1-yl)-2-(trifluoromethyl)benzonitrile], the IC50 in test [2] is 3.26 µM; in test [3], 2.66 µM.

Turning to `COC1(CN2CC3(COc4cc5c(cc4C3)C(=O)N(C3CCC(=O)NC3=O)C5=O)C2)CCN(C(=O)c2ccc(N3C(=S)N(c4ccc(C#N)c(C(F)(F)F)c4)C(=O)C3(C)C)cc2F)CC1` (centres unmarked) [PROTAC 75], the IC50 was found to be 0.17 µM in test [2] and 0.53 µM in test [3].

In the case of `COC1(CN2CC3(CCc4cc5c(cc4O3)CN(C3CCC(=O)NC3=O)C5=O)C2)CCN(C(=O)c2ccc(N3C(=S)N(c4ccc(C#N)c(C(F)(F)F)c4)C(=O)C3(C)C)cc2F)CC1` (centres unmarked) [PROTAC 76], the values for the IC50 in test [2] and in test [3] were 0.35 µM and 3.24 µM, respectively.

Turning to `CC1(C)C(=O)N(c2ccc(C#N)c(C(F)(F)F)c2)C(=S)N1c1ccc(C(=O)N2CC(N3CC4(CCc5cc6c(cc5O4)C(=O)N(C4CCC(=O)NC4=O)C6=O)C3)C2)c(F)c1` (centres unmarked) [PROTAC 77, 4-(3-(4-(3-(7′-(2,6-dioxopiperidin-3-yl)-6′,8′-dioxo-4′,6′,7′,8′-tetrahydro-3′H-spiro [azetidine-3,2′-pyrano[2,3-f]isoindole]-1-yl)azetidine-1-carbonyl)-3-fluorophenyl)-4,4-dimethyl-5-oxo-2-thioimidazolidin-1-yl)-2-(trifluoromethyl)benzonitrile], the results for the concentration for half-maximal inhibition (IC50) in test [2] and in test [3] were 2.03 µM and 6.45 µM, respectively.

As to `CC1(C)C(=O)N(c2ccc(C#N)c(C(F)(F)F)c2)C(=S)N1c1ccc(C(=O)N2CCC(N3CCC4(CC3)COc3cc5c(cc34)C(=O)N(C3CCC(=O)NC3=O)C5=O)CC2)c(F)c1` (centres unmarked) [PROTAC 80, 4-(3-(4-(4-(6-(2,6-dioxopiperidin-3-yl)-5,7-dioxo-6,7-dihydro-2H,5H-spiro[furo[2,3-f]isoindole-3,4′-piperidin]-1′-yl)piperidine-1-carbonyl)-3-fluorophenyl)-4,4-dimethyl-5-oxo-2-thioimidazolidin-1-yl)-2-(trifluoromethyl)benzonitrile], the IC50 in test [2] was 9.48 µM; in test [3], 3.24 µM.

With `CC1(C)C(=O)N(c2ccc(C#N)c(C(F)(F)F)c2)C(=S)N1c1ccc(C(=O)N2CCC3(CCC(N4CCC5(CCc6cc7c(cc6O5)C(=O)N(C5CCC(=O)NC5=O)C7=O)CC4)CC3)CC2)c(F)c1` (centres unmarked) [PROTAC 83, 4-(3-(4-(9-(7′-(2,6-dioxopiperidin-3-yl)-6′,8′-dioxo-4′,6′,7′,8′-tetrahydro-3′H-spiro[piperidine-4,2′-pyrano[2,3-f]isoindol]-1-yl)-3-azaspiro[5.5]undecane-3-carbonyl)-3-fluorophenyl)-4,4-dimethyl-5-oxo-2-thioimidazolidin-1-yl)-2-(trifluoromethyl)benzonitrile], the IC50 in test [2] was found to be 0.89 µM; in test [3], 2.63 µM.

Turning to `CC1(C)C(=O)N(c2ccc(C#N)c(C(F)(F)F)c2)C(=S)N1c1ccc(C(=O)N2CC3(CC(N4CCC5(CCc6cc7c(cc6O5)C(=O)N(C5CCC(=O)NC5=O)C7=O)CC4)C3)C2)c(F)c1` (centres unmarked) [PROTAC 85, 4-(3-(4-(6-(7′-(2,6-dioxopiperidin-3-yl)-6′,8′-dioxo-4′,6′,7′,8′-tetrahydro-3′H-spiro[piperidin-4,2′-pyrano[2,3-f]isoindol]-1-yl)-2-azaspiro[3.3]heptane-2-carbonyl)-3-fluorophenyl)-4,4-dimethyl-5-oxo-2-thioimidazolidin-1-yl)-2-(trifluoromethyl)benzonitrile], the values for the IC50 in test [2] and in test [3] were 0.62 µM and 27.9 µM, respectively.

Source of the values: patent US20250129088A1, “CEREBLON E3 UBIQUITIN LIGASE INHIBITOR” (Gan & Lee Pharmaceuticals Co., Ltd., priority 2022, published 2025).
